Earlier results, collected in paper PMC11317875 (Chemical Science, 2024).

Target: LpqY (Mycolicibacterium thermoresistibile, UniProt G7CES0)
Parameters: His-SUMO (N, cleaved yes); made in house; host or cells: E. coli BL21 (DE3)
Conditions: LpqY-azide-trehalose binding; cited from earlier work

LpqY, sequence (G7CES0 29-471): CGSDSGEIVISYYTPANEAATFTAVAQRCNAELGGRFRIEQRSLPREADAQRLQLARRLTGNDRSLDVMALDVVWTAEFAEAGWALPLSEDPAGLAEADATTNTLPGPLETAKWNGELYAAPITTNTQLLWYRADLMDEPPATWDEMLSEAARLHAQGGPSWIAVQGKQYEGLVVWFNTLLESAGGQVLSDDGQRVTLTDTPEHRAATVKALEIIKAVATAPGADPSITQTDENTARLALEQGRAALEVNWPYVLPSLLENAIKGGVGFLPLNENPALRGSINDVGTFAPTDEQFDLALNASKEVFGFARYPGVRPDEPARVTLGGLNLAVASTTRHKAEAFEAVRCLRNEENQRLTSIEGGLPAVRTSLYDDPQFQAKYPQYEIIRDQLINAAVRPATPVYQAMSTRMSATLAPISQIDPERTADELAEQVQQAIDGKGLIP

Row | SMILES | Kd
1 | [N-]=[N+]=N[C@H]1[C@@H](O[C@H]2O[C@H](CO)[C@@H](O)[C@H](O)[C@H]2O)O[C@H](CO)[C@@H](O)[C@@H]1O [2Az-Tre, 2-Deoxy-2-azido-trehalose] | 1916 ± 7.7 µM
2 | [N-]=[N+]=N[C@@H]1[C@@H](O)[C@@H](O[C@H]2O[C@H](CO)[C@@H](O)[C@H](O)[C@H]2O)O[C@H](CO)[C@H]1O [3Az-Tre, 3-Deoxy-3-azido-trehalose] | 475 ± 17.2 µM
3 | [N-]=[N+]=N[C@H]1[C@H](O)[C@@H](O)[C@@H](O[C@H]2O[C@H](CO)[C@@H](O)[C@H](O)[C@H]2O)O[C@@H]1CO [4Az-Tre, 4-Deoxy-4-azido-trehalose] | 247 ± 7.1 µM
4 | [N-]=[N+]=NC[C@H]1O[C@H](O[C@H]2O[C@H](CO)[C@@H](O)[C@H](O)[C@H]2O)[C@H](O)[C@@H](O)[C@@H]1O [6Az-Tre, 6-Deoxy-6-azido-trehalose] | 443 ± 5.3 µM
